Assay [1] can be described thus: Inhibition of Tel-fused FMS (unknown origin) expressed in mouse BA/F3 cells after 48 hrs by luciferase reporter gene assay in absence of recombinant mouse IL3.
Assay [2] is described as follows: Inhibition of Tel-fused FGR (unknown origin) expressed in mouse BA/F3 cells after 48 hrs by luciferase reporter gene assay in absence of recombinant mouse IL3. On the technique in general: A reporter such as luciferase makes a cellular process visible.
The nature of assay [3]: Inhibition of Tel-fused ROS (unknown origin) expressed in mouse BA/F3 cells after 48 hrs by luciferase reporter gene assay in absence of recombinant mouse IL3.
A short description of assay [4]: Inhibition of Tel-fused BMX (unknown origin) expressed in mouse BA/F3 cells after 48 hrs by luciferase reporter gene assay in absence of recombinant mouse IL3.
The nature of assay [5]: Inhibition of Tel-fused KIT (unknown origin) expressed in mouse BA/F3 cells after 48 hrs by luciferase reporter gene assay in absence of recombinant mouse IL3.
Assay [6] is described as follows: Inhibition of Tel-fused TRKB (unknown origin) overexpressed in mouse BA/F3 cells assessed as inhibition of cell proliferation after 48 hrs by luciferase reporter gene assay in absence of recombinant mouse IL3.
Assay [7] in a line: Inhibition of Tel-fused TRKC (unknown origin) overexpressed in mouse BA/F3 cells assessed as inhibition of cell proliferation after 48 hrs by luciferase reporter gene assay in absence of recombinant mouse IL3.
Assay [8] can be described thus: Inhibition of Tel-fused KDR (unknown origin) expressed in mouse BA/F3 cells after 48 hrs by luciferase reporter gene assay in absence of recombinant mouse IL3.
A short description of assay [9]: Inhibition of Tel-fused SYK (unknown origin) expressed in mouse BA/F3 cells after 48 hrs by luciferase reporter gene assay in absence of recombinant mouse IL3.
Assay [10] can be described thus: Inhibition of BCR-fused ABL (unknown origin) expressed in mouse BA/F3 cells after 48 hrs by luciferase reporter gene assay in absence of recombinant mouse IL3.
Assay [11] is described as follows: Inhibition of Tel-fused RON (unknown origin) expressed in mouse BA/F3 cells after 48 hrs by luciferase reporter gene assay in absence of recombinant mouse IL3.
Assay [12] can be described thus: Inhibition of Tel-fused ALK (unknown origin) expressed in mouse BA/F3 cells after 48 hrs by luciferase reporter gene assay in absence of recombinant mouse IL3.
A short description of assay [13]: Inhibition of Tel-fused MER (unknown origin) expressed in mouse BA/F3 cells after 48 hrs by luciferase reporter gene assay in absence of recombinant mouse IL3.
The nature of assay [14]: Inhibition of Tel-fused MET (unknown origin) expressed in mouse BA/F3 cells after 48 hrs by luciferase reporter gene assay in absence of recombinant mouse IL3.
The nature of assay [15]: Inhibition of Tel-fused LCK (unknown origin) expressed in mouse BA/F3 cells after 48 hrs by luciferase reporter gene assay in absence of recombinant mouse IL3.
The nature of assay [16]: Inhibition of Tel-fused INSR (unknown origin) expressed in mouse BA/F3 cells after 48 hrs by luciferase reporter gene assay in absence of recombinant mouse IL3.
The nature of assay [17]: Inhibition of Tel-fused FLT3 (unknown origin) expressed in mouse BA/F3 cells after 48 hrs by luciferase reporter gene assay in absence of recombinant mouse IL3.
Assay [18] can be described thus: Inhibition of Tel-fused TIE1 (unknown origin) expressed in mouse BA/F3 cells after 48 hrs by luciferase reporter gene assay in absence of recombinant mouse IL3.
Assay [19] can be described thus: Inhibition of Tel-fused FLT1 (unknown origin) expressed in mouse BA/F3 cells after 48 hrs by luciferase reporter gene assay in absence of recombinant mouse IL3.
A short description of assay [20]: Inhibition of Tel-fused BRAF (unknown origin) expressed in mouse BA/F3 cells after 48 hrs by luciferase reporter gene assay in absence of recombinant mouse IL3.
Assay [21] in a line: Inhibition of Tel-fused IGF1R (unknown origin) expressed in mouse BA/F3 cells after 48 hrs by luciferase reporter gene assay in absence of recombinant mouse IL3.
Assay [22] can be described thus: Inhibition of Tel-fused FGFR3 (unknown origin) expressed in mouse BA/F3 cells after 48 hrs by luciferase reporter gene assay in absence of recombinant mouse IL3.
A short description of assay [23]: Inhibition of Tel-fused FGFR4 (unknown origin) expressed in mouse BA/F3 cells after 48 hrs by luciferase reporter gene assay in absence of recombinant mouse IL3.
A short description of assay [24]: Inhibition of Tel-fused ZAP70 (unknown origin) expressed in mouse BA/F3 cells after 48 hrs by luciferase reporter gene assay in absence of recombinant mouse IL3.
Assay [25] is described as follows: Inhibition of Tel-fused PDGFRbeta (unknown origin) expressed in mouse BA/F3 cells after 48 hrs by luciferase reporter gene assay in absence of recombinant mouse IL3.
The nature of assay [26]: Inhibition of Tel-fused TRKA (unknown origin) overexpressed in mouse BA/F3 cells assessed as inhibition of cell proliferation after 48 hrs by luciferase reporter gene assay in absence of recombinant mouse IL3.
Assay [27] can be described thus: Inhibition of NGF-activated full length TRKA (unknown origin) expressed in mouse BA/F3 cells assessed as inhibition of cell proliferation.
A short description of assay [28]: Inhibition of NMP-fused ALK (unknown origin) expressed in mouse BA/F3 cells after 48 hrs by luciferase reporter gene assay in absence of recombinant mouse IL3.
Assay [29] in a line: Inhibition of Tel-fused SRC (unknown origin) expressed in mouse BA/F3 cells after 48 hrs by luciferase reporter gene assay in absence of recombinant mouse IL3.
Assay [30] is described as follows: Inhibition of Tel-fused LYN (unknown origin) expressed in mouse BA/F3 cells after 48 hrs by luciferase reporter gene assay in absence of recombinant mouse IL3.
Assay [31] in a line: Inhibition of Tel-fused TYRO3 (unknown origin) expressed in mouse BA/F3 cells after 48 hrs by luciferase reporter gene assay in absence of recombinant mouse IL3.
Assay [32] in a line: Inhibition of TPM3-fused TRKA (unknown origin) expressed in human KM12 cells assessed as inhibition of cell proliferation after 48 hrs by luciferase reporter gene assay.
Assay [33] is described as follows: Inhibition of Tel-fused RET (unknown origin) expressed in mouse BA/F3 cells after 48 hrs by luciferase reporter gene assay in absence of recombinant mouse IL3.

From BindingDB's records for doi:10.1021/acsmedchemlett.5b00050 (Genomics Institute of The Novartis Research Foundation, 2015) come the findings set out here.

For `Fc1cccc([C@H]2CCCN2c2ccc3ncc(-c4ccccn4)n3n2)c1`, the IC50 in assay [1] was more than 10000 nM; in assay [2] it was 8700 nM; in assay [3], 600 nM; in assay [4] it was more than 10000 nM; in [5] it was 5500 nM; in assay [6], 1 nM. The IC50 in [7] worked out at 1 nM.
`N#Cc1ccc(-c2cnc3ccc(NCc4ccccc4)nn23)cc1`: the half-maximal inhibitory concentration (IC50) in [1] came out at 3400 nM; in [8] it was 4100 nM; in [9] it was 4000 nM; in assay [2], 6400 nM; in assay [10] it was 3800 nM; in [11], 6100 nM. Further, the IC50 in assay [3] turned out to be 300 nM; in assay [4], 9700 nM; in assay [12], 3100 nM; in assay [5] it was 2200 nM; in assay [13], 5400 nM; in [14] it was 5100 nM. Besides, the IC50 in [15] worked out at 2000 nM; in assay [16], 8600 nM; in [17] it was 720 nM; in [18] it was 5500 nM; in assay [19], 3000 nM; in assay [20] it was 2500 nM. Further, the IC50 in assay [21] came out at 4000 nM; in assay [22] it was 3900 nM; in [23] it was 5900 nM; in assay [24] it was 6400 nM; in assay [25], 2000 nM; in assay [6], 270 nM. For the same compound, the IC50 in assay [7] is 100 nM; in assay [26], 850 nM.
`OC1CCN(c2cc(-c3cnc4ccc(N5CCC[C@@H]5c5cccc(F)c5)nn34)ccn2)CC1`: the IC50 worked out at 3 nM in assay [27]; 5300 nM in assay [1]; 5000 nM in assay [8]; 7900 nM in [9]; 5200 nM in assay [10]; 4800 nM in assay [11]. Further, the IC50 in [28] was determined as 3000 nM; in assay [3], 210 nM; in assay [4] it was 4300 nM; in [12], 3900 nM; in assay [29] it was 4600 nM; in assay [5] it was 7000 nM. In addition, the IC50 amounted to 5100 nM in [13]; 5200 nM in assay [15]; 4900 nM in assay [30]; 4300 nM in [17]; 5300 nM in assay [19]; 5000 nM in assay [22]. For the same compound, the IC50 in assay [31] was 5000 nM; in assay [23], 4400 nM; in assay [25], 4600 nM; in [32] it was 10 nM; in [6] it was 4 nM; in assay [7], 2 nM. Further, in assay [26], the IC50 was 4 nM.
As for `O=C(O)CN1CCN(c2cc(-c3cnc4ccc(N5CCC[C@@H]5c5cccc(F)c5)nn34)ccn2)CC1`, the IC50 in assay [27] was determined as 1 nM; in assay [1], 2500 nM; in [8] it was 1000 nM; in [9], 4400 nM; in assay [10] it was 2400 nM; in [28], 1200 nM. Besides, the IC50 amounted to 60 nM in [3]; 3700 nM in assay [33]; 2200 nM in assay [12]; 2500 nM in assay [29]; 790 nM in assay [5]; 4300 nM in assay [14]. Besides, the IC50 was 3000 nM in [15]; 3400 nM in [30]; 5300 nM in assay [16]; 3300 nM in [17]; 4300 nM in [18]; 6200 nM in assay [20]. In addition, the IC50 in assay [21] came to 5100 nM; in assay [31], 5200 nM; in assay [23], 5300 nM; in [24] it was 5200 nM; in [25], 2200 nM; in assay [32], 1 nM. The IC50 is 1 nM in assay [6], less than 1 nM in [7] and 1 nM in assay [26].
Turning to `N#Cc1ccc(-c2cnc3ccc(N4CCCC4c4cccc(F)c4)nn23)cc1` (centres undefined), in [6], the IC50 was found to be 29 nM.
The same measure, in the same setting: the result for `N#Cc1ccc(-c2cnc3ccc(N4CCC[C@H]4c4cccc(F)c4)nn23)cc1` reads 1970 nM.
Same read-out and setting: next, `N#Cc1ccc(-c2cnc3ccc(N4CCC[C@@H]4c4cccc(F)c4)nn23)cc1`: 11 nM.
Turning to `NS(=O)(=O)c1ccc(-c2cnc3ccc(NCc4cccc(F)c4)nn23)cc1`, the figures for the IC50 in [6] and in assay [26] were 13 nM and 27 nM, respectively.
The corresponding values for `CN(Cc1ccccc1)c1ccc2ncc(-c3ccc(C#N)cc3)n2n1` are 130 nM and 520 nM.
On to `N#Cc1ccc(-c2cnc3ccc(N4CCCCC4c4cccc(F)c4)nn23)cc1` (centres undefined), for which the IC50 in [6] is 50 nM.
In the case of `N#Cc1ccc(-c2cnc3ccc(NCc4cccc(F)c4)nn23)cc1`, the values for the IC50 in assay [6] and in assay [26] were 21 nM and 50 nM, respectively.
Regarding `COc1ccccc1CNc1ccc2ncc(-c3ccc(C#N)cc3)n2n1`, the IC50 in [6] was determined as 120 nM; in assay [26], 170 nM.
The corresponding values for `OCc1ccc(-c2cnc3ccc(NCc4cccc(F)c4)nn23)cc1` are 27 nM and 76 nM.
The matching figures for `O=C(Nc1ccc(-c2cnc3ccc(NCc4cccc(F)c4)nn23)cc1)C1CCOCC1`: 7 nM and 6 nM.
The corresponding values for `N#Cc1cccc(-c2cnc3ccc(NCc4ccccc4)nn23)c1` are 200 nM and 740 nM.
With `OC1CCN(c2cccc(-c3cnc4ccc(N5CCC[C@@H]5c5cccc(F)c5)nn34)n2)CC1`, the IC50 in assay [6] was 4 nM.

The IC50 is the midpoint of a concentration-inhibition curve.
